This is an account of results in patent US10576078B2 (Council of Scientific & Industrial Research, priority 2017, dated 2020).

Series [1] concerns K562 cells. Briefly: K562 cell viability, CellTiter-Glo luminescent assay. Conditions: 48 h; for IC50: Homo sapiens. The class given is cell-based, Human. On the procedure: K562 cells were treated with indicated concentrations of CFZ for 24 h or 48 h, cell viability was then assessed using the CellTiter-Glo luminescent cell viability assay (Promega). Data is mean±SEM of three independent experiments (each in triplicates). IC50 was calculated using Graphpad prism 5 software.
K562 cells were treated as indicated for 48 h and cell viability was determined by CellTiter-Glo luminescent cell viability assay (A) graphical representation of mean±SEM of three independent experiments.
Determination of CFZ's Effect on Cell Viability and Apoptosis • a. CellTitre-Glo assay: Cell viability (in FIG. 1B, FIG. 4 and FIG. 6A) assays was performed using the ATP-based CellTiter-Glo Luminescent cell viability assay (Promega Madison, Wis.) as per the manufacturer's instruction. Briefly, (1.25×10^5) K562 cells/ml (FIG. 1B and FIG. 4) or CD34+ cells from healthy donors (FIG. 6A) were cultured in 48-well plates and were treated as indicated in the respective figures and figure descriptions (vehicle; V=0.1% DMSO). Cells were then incubated with CellTitre-Glo reagent for 15 min. Luminescence was recorded in a GloMax-96 Microplate luminometer (Promega, Madison, Wis.) with an integration time of 1 s per well. • b. Analysis of apoptosis by Annexin V staining and flow cytometry • K562 (FIG. 1C-D) and primary CP-CML cells (FIG. 1H-I) were cultured in 6 well plates (2×10^5 cells/well) and were treated with indicated concentrations of compounds as described in respective figures and their descriptions. Cells were then harvested and washed, and incubated in binding buffer (Annexin V Binding Buffer, BD Pharmingen) with 0.3% Annexin V-FITC and PI for 15 min at room temperature in dark. Apoptosis was measured by FACSCalibur flow cytometer (Becton Dickenson, San Jose, Calif.). • c. TUNEL assay • Pro-apoptotic potential was analysed using a Fluorometric APO-BrdU™ TUNEL Assay Kit (Invitrogen) according to the manufacturer's protocol (FIG. 1F). Cells were treated with Vehicle (0.1% DMSO) or CFZ (5 μM) for 48 h. Cells were then fixed in formaldehyde (4%) for 25 min at 4° C., permeabilized with 0.2% Triton-X100 and washed with PBS. Cells were then incubated in Terminal Deoxynucleotidyl Transferase (TdT) reaction buffer without TdT enzyme for 7 minutes at room temperature and then in TdT buffer with TdT enzyme at 37° C. in dark. After termination of TdT reaction, cells were stained with 5 μg/ml of PI for 15 min in dark followed by washing and analysed with fluorescence microscopy.

Series [2] deals with Peripheral blood mononuclear cells from control donors. Briefly: Apoptosis by annexin V/PI staining in PBMC from control donors. Type of series: cell-based, Human. Conditions: 5 μM, 48 h.
Series [3] deals with stat5b, HIF-1α, HIF-2α and CITED2 transcripts in CD34+ cells from imatinib-resistant patients. Briefly: QRT-PCR of stem cell factors in CD34+ CML cells. Type of series: cell-based, Human. As for the experimental part: CD34^+ cells isolated from IMT-resistant patients (n=3) were treated with CFZ (5 μM, 24 h) and stat5b, HIF-1α, HIF-2α and CITED2 transcripts were assessed by QRT-PCR (in triplicates). ***p<0.0001.
CD34+ cells were isolated from imatinib-resistant CP-CML cells as described above. Cells were then treated with vehicle (V; 0.1% DMSO) or CFZ (5 μM) for 24 h. Total RNA was isolated from CD34+ cells as described above, using TRI reagent. 2 μg total RNA was reverse transcribed using High-Capacity cDNA Reverse Transcription Kit (Applied Biosystems; Foster City, Calif.). Quantitative real-time PCRs (QRT-PCR) were performed on a LightCycler 480 System (Roche, Indianapolis, Ind.) using VeriQuest SYBR Green qPCR Master Mix (Affymetrix, Thermo Scientific). The QRT-PCR primers were designed using Universal ProbeLibrary Assay Design Center (Roche Life Science). Primer sequences (5′-3′) hSTAT5B-For-TGAAG […], hSTAT5B-Rev […] ACTG, hHIF-1α-For-[…], hHIF-1α-Rev-[…], hHIF-2α-For-[…], hHIF-2α-Rev-[…], hCITED-2-For-[…], hCITED-2-Rev-[…]. The data were analyzed by ΔΔCT method with GAPDH (GAPDH-For-[…], GAPDH-Rev-GCC […]) used as an internal control (FIG. 2F).

The test system of series [4] is CP-CML cells. Briefly: Megakaryocytic surface markers in CP-CML cells by flow cytometry. The class given is cell-based, Human. The conditions noted are these: 2.5 μM CFZ, 72 h. As for the experimental part: FIG. 3D-3E in particular show CFZ induces megakaryocytic surface markers CD61 and CD41 in CP-CML cells. CD61 (D) and CD41 (E) surface expression in CP-CML (gated monocytes) cells after treatment with 2.5 μM CFZ for 72 h were assessed by flowcytometry. *p<0.05, ***p<0.0001.
Differentiation analyses by flow cytometry: K562 (FIG. 3B-C) or primary CP-CML cells (FIG. 3D-E) were treated with vehicle, CFZ and PMA as indicated in the respective figures and figure descriptions for 72 hrs. Cells were then harvested, washed, and centrifuged, resuspended in 100 μl PBS and were stained with CD41-FITC or CD61-PE antibodies for 30 min at room temperature (in dark). After incubation, the cells were washed and resuspended in 300 μl PBS and were analyzed on a FACSCalibur flow cytometer.

For series [5] the following is noted: cited from earlier work.
The mark [6] stands for this setting: CD34+ cells from imatinib-resistant patients, CFZ 5 μM, 24 h.

Molecules are shown by their SMILES. Where two headings read alike, the source gives them in different places. Some results are limits rather than exact numbers.

`CC(C)/N=c1\cc2n(-c3ccc(Cl)cc3)c3ccccc3nc-2cc1Nc1ccc(Cl)cc1` [CFZ, Clofazimine]: in series [1] (CFZ with dasatinib, Compusyn), the “combination index (CI)” value was under 1. Also, the “combination index (CI)” value in series [1] (CFZ with imatinib, Compusyn program) is on record as under 1. Besides, the IC50 in series [1] (FIG. 1B, read-out: IC50 (48 h), reduction of viability) was found to be 5.85 µM. In addition, the IC50 in series [1] (drug alone, FIG. 4A, read-out: IC50, K562 cell viability assay (48 h)) was determined as 4.13 µM. Besides, the “apoptosis in cells from control donors” value in series [2] is reported as “didn't affect”. Moreover, in series [3] (setting [6]), the CITED2 transcript entry is reported as “reduced”, the HIF-1α transcript result is listed as “reduced”, the HIF-2α transcript entry is reported as “reduced” and the stat5b transcript entry is reported as “reduced”. The “stat5 mRNA expression” value in series [3] (FIG. 2F) is “suppressed”. For the same compound, in series [4], the “megakaryocytic surface marker CD41” value is given as “increased” and the “megakaryocytic surface marker CD61” value was “increased”. Moreover, the “average human plasma level of CFZ” value in series [5] (following daily oral administration of 100 mg CFZ) is 0.7 mg/L. Further, the “human plasma Cmax of CFZ” value in series [5] (human plasma) was 400 to 4000 ng/mL.
